Laboratory results: US11446287B2, “Compounds and methods for EP300 or CBP modulation and indications therefor” (Opna Immuno-Oncology SA, priority 2019, dated 2022)

The compounds below were run against T1, Recombinant human EP300 containing the bromodomain (EP300-BD (1040-1161)) (Homo sapiens, UniProt Q09472) (assay: EP300 Alphascreen binding assay).
T1 construct: Recombinant human EP300 bromodomain (EP300-BD (1040-1161)); made in house; host or cells: E. coli BL21-CodonPlus (DE3), modified pET vector
T1 sequence (Q09472 1040-1161): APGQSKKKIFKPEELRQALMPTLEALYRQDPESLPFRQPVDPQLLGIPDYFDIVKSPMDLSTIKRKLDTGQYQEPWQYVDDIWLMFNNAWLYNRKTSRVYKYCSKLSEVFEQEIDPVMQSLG
Method in brief: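 Displacement of a biotinylated acetyl-K56 histone H3 peptide from the N-His bromodomain construct (1040-1161) measured by AlphaScreen proximity, beads at 7.5 μg/ml final, read 60 min after addition. Protein, peptide and compound first incubated 1 h at room temperature, pH 7.5 HEPES buffer; IC50 by four-parameter logistic fit.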
`CCc1noc(C)c1-c1cnc2c(c1)c(-c1ccc(C(=O)O)cc1OC(F)(F)F)cn2C1CCOCC1` [P-0400, 4-(5-(3-ethyl-5-methylisoxazol-4-yl)-1-(tetrahydro-2H-pyran-4-yl)-1H-pyrrolo[2,3-b]pyridin-3-yl)-3-(trifluoromethoxy)benzoic acid] gave an IC50 of 0.1 to 1000 nM. `CCc1onc(C)c1-c1cnc2c(c1)c(-c1ccc(C(=O)O)cc1OC(F)(F)F)cn2C1CCOCC1` [P-0401, 4-(5-(5-ethyl-3-methylisoxazol-4-yl)-1-(tetrahydro-2H-pyran-4-yl)-1H-pyrrolo[2,3-b]pyridin-3-yl)-3-(trifluoromethoxy)benzoic acid] gave an IC50 of 0.1 to 1000 nM. `Cc1cc(C(=O)O)cc(OC(C)C)c1-c1cn(C2CCOCC2)c2ncc(-c3c(C)noc3C)cc12` [P-0402, 4-(5-(3,5-dimethylisoxazol-4-yl)-1-(tetrahydro-2H-pyran-4-yl)-1H-pyrrolo[2,3-b]pyridin-3-yl)-3-isopropoxy-5-methylbenzoic acid] gave an IC50 of 0.1 to 1000 nM. Compound `Cc1noc(C)c1-c1cnc2c(c1)c(-c1ccc(C(=O)O)cc1OC(C)C)cn2C1(C)CCOCC1` [P-0403, 4-(5-(3,5-dimethylisoxazol-4-yl)-1-(4-methyltetrahydro-2H-pyran-4-yl)-1H-pyrrolo[2,3-b]pyridin-3-yl)-3-isopropoxybenzoic acid] has an IC50 of 0.1 to 1000 nM. `Cc1noc(C)c1-c1cnc2c(c1)c(-c1c(Cl)cc(C(=O)O)cc1OC(C)C)cn2C1(C)CCOCC1` [P-0404, 3-chloro-4-(5-(3,5-dimethylisoxazol-4-yl)-1-(4-methyltetrahydro-2H-pyran-4-yl)-1H-pyrrolo[2,3-b]pyridin-3-yl)-5-isopropoxybenzoic acid] showed an IC50 of 0.1 to 1000 nM. With `CCOc1nc(C(=O)O)ccc1-c1cn(C2(C)CCOCC2)c2ncc(-c3c(C)noc3C)cc12` [P-0405, 5-(5-(3,5-dimethylisoxazol-4-yl)-1-(4-methyltetrahydro-2H-pyran-4-yl)-1H-pyrrolo[2,3-b]pyridin-3-yl)-6-ethoxypicolinic acid] the IC50 was 0.1 to 1000 nM. Work on `CCOc1nc(C(=O)O)c(Cl)cc1-c1cn([C@H]2CCOC2)c2ncc(-c3c(C)noc3C)cc12` [P-0406, (S)-3-chloro-5-(5-(3,5-dimethylisoxazol-4-yl)-1-(tetrahydrofuran-3-yl)-1H-pyrrolo[2,3-b]pyridin-3-yl)-6-ethoxypicolinic acid] yielded an IC50 of 0.1 to 1000 nM. `Cc1noc(C)c1-c1cnc2c(c1)c(-c1ccc(C(=O)O)cc1OC(C)C)cn2C1(C)CCOC1` (stereo not drawn) [P-0407, 4-(5-(3,5-dimethylisoxazol-4-yl)-1-(3-methyltetrahydrofuran-3-yl)-1H-pyrrolo[2,3-b]pyridin-3-yl)-3-isopropoxybenzoic acid] gave an IC50 of 0.1 to 1000 nM. Compound `Cc1noc(C)c1-c1cnc2c(c1)c(-c1c(Cl)cc(C(=O)O)cc1OC(C)C)cn2C1(C)CCOC1` (stereo not drawn) [P-0408, 3-chloro-4-(5-(3,5-dimethylisoxazol-4-yl)-1-(3-methyltetrahydrofuran-3-yl)-1H-pyrrolo[2,3-b]pyridin-3-yl)-5-isopropoxybenzoic acid] has an IC50 of 0.1 to 1000 nM. Work on `Cc1noc(C)c1-c1cnc2c(c1)c(-c1c(Cl)cc(C(=O)O)cc1OC1CC1)cn2-c1ncccc1C#N` [P-0409, 3-chloro-4-(1-(3-cyanopyridin-2-yl)-5-(3,5-dimethylisoxazol-4-yl)-1H-pyrrolo[2,3-b]pyridin-3-yl)-5-cyclopropoxybenzoic acid] yielded an IC50 of 0.1 to 1000 nM. With `Cc1noc(C)c1-c1cnc2c(c1)c(-c1c(F)cc(C(=O)O)cc1OC1CCC1)cn2C1CCOCC1` [P-0410, 3-cyclobutoxy-4-(5-(3,5-dimethylisoxazol-4-yl)-1-(tetrahydro-2H-pyran-4-yl)-1H-pyrrolo[2,3-b]pyridin-3-yl)-5-fluorobenzoic acid] the IC50 was 0.1 to 1000 nM. Compound `CCOc1nc(C(=O)O)cc(C)c1-c1cn(C2CCOCC2)c2ncc(-c3c(C)noc3C)cc12` [P-0411, 5-(5-(3,5-dimethylisoxazol-4-yl)-1-(tetrahydro-2H-pyran-4-yl)-1H-pyrrolo[2,3-b]pyridin-3-yl)-6-ethoxy-4-methylpicolinic acid] has an IC50 of 0.1 to 1000 nM. `CCOc1nc(C(=O)O)cc(C)c1-c1cn(-c2ccc(F)cc2F)c2ncc(-c3c(C)noc3C)cc12` [P-0412, 5-(1-(2,4-difluorophenyl)-5-(3,5-dimethylisoxazol-4-yl)-1H-pyrrolo[2,3-b]pyridin-3-yl)-6-ethoxy-4-methylpicolinic acid] showed an IC50 of 0.1 to 1000 nM. For `Cc1nnn(C)c1-c1cnc2c(c1)c(-c1ccc(C(=O)O)cc1OC1CC1)cn2C1CCOCC1` [P-0413, 3-cyclopropoxy-4-(5-(1,4-dimethyl-1H-1,2,3-triazol-5-yl)-1-(tetrahydro-2H-pyran-4-yl)-1H-pyrrolo[2,3-b]pyridin-3-yl)benzoic acid], the IC50 was 0.1 to 1000 nM. Work on `CCOc1cc(C(=O)O)nc(OCC)c1-c1cn(-c2ccccc2F)c2ncc(-c3c(C)noc3C)cc12` [P-0414, 5-(5-(3,5-dimethylisoxazol-4-yl)-1-(2-fluorophenyl)-1H-pyrrolo[2,3-b]pyridin-3-yl)-4,6-diethoxypicolinic acid] yielded an IC50 of 0.1 to 1000 nM. Work on `CCOc1cc(C(=O)O)nc(OCC)c1-c1cn([C@@H](C)c2ccccn2)c2ncc(-c3c(C)noc3C)cc12` [P-0415, (S)-5-(5-(3,5-dimethylisoxazol-4-yl)-1-(1-(pyridin-2-yl)ethyl)-1H-pyrrolo[2,3-b]pyridin-3-yl)-4,6-diethoxypicolinic acid] yielded an IC50 of 0.1 to 1000 nM. `CCOc1nc(C(=O)O)c(C)cc1-c1cn(C(C2CC2)C2CC2)c2ncc(-c3c(C)noc3C)cc12` [P-0416, 5-(1-(dicyclopropylmethyl)-5-(3,5-dimethylisoxazol-4-yl)-1H-pyrrolo[2,3-b]pyridin-3-yl)-6-ethoxy-3-methylpicolinic acid] gave an IC50 of 0.1 to 1000 nM. Compound `CCOc1nc(C(=O)O)cc(C)c1-c1cn(C(C2CC2)C2CC2)c2ncc(-c3c(C)noc3C)cc12` [P-0417, 5-(1-(dicyclopropylmethyl)-5-(3,5-dimethylisoxazol-4-yl)-1H-pyrrolo[2,3-b]pyridin-3-yl)-6-ethoxy-4-methylpicolinic acid] has an IC50 of 0.1 to 1000 nM. `Cc1noc(C)c1-c1cnc2c(c1)c(-c1ccnc(C(=O)O)c1C)cn2C(C1CC1)C1CC1` [P-0418, 4-(1-(dicyclopropylmethyl)-5-(3,5-dimethylisoxazol-4-yl)-1H-pyrrolo[2,3-b]pyridin-3-yl)-3-methylpicolinic acid] showed an IC50 of 0.1 to 1000 nM. Work on `Cc1noc(C)c1-c1cnc2c(c1)c(-c1ccnc(C(=O)O)c1C)cn2C1CCOCC1` [P-0419, 4-(5-(3,5-dimethylisoxazol-4-yl)-1-(tetrahydro-2H-pyran-4-yl)-1H-pyrrolo[2,3-b]pyridin-3-yl)-3-methylpicolinic acid] yielded an IC50 of 0.1 to 1000 nM. `CCOc1cc(C(=O)O)nc(OCC)c1-c1cn(C(C2CC2)C2CC2)c2ncc(-c3c(C)noc3C)cc12` [P-0420, 5-(1-(dicyclopropylmethyl)-5-(3,5-dimethylisoxazol-4-yl)-1H-pyrrolo[2,3-b]pyridin-3-yl)-4,6-diethoxypicolinic acid] showed an IC50 of 0.1 to 1000 nM. With `CCOc1cc(C(=O)O)nc(OCC)c1-c1cn(-c2ncccc2C#N)c2ncc(-c3c(C)noc3C)cc12` [P-0421, 5-(1-(3-cyanopyridin-2-yl)-5-(3,5-dimethylisoxazol-4-yl)-1H-pyrrolo[2,3-b]pyridin-3-yl)-4,6-diethoxypicolinic acid] the IC50 was 0.1 to 1000 nM. Compound `CCOc1cc(C(=O)O)nc(OCC)c1-c1cn(-c2ncccc2C(N)=O)c2ncc(-c3c(C)noc3C)cc12` [P-0422, 5-(1-(3-carbamoylpyridin-2-yl)-5-(3,5-dimethylisoxazol-4-yl)-1H-pyrrolo[2,3-b]pyridin-3-yl)-4,6-diethoxypicolinic acid] has an IC50 of 0.1 to 1000 nM. `CCOc1cc(C(=O)O)nc(OCC)c1-c1cn(-c2ccc(C#N)cc2F)c2ncc(-c3c(C)noc3C)cc12` [P-0423, 5-(1-(4-cyano-2-fluorophenyl)-5-(3,5-dimethylisoxazol-4-yl)-1H-pyrrolo[2,3-b]pyridin-3-yl)-4,6-diethoxypicolinic acid] gave an IC50 of 0.1 to 1000 nM. For `CCOc1cc(C(=O)O)nc(OCC)c1-c1cn(-c2cnc(C3CC3)nc2)c2ncc(-c3c(C)noc3C)cc12` [P-0424, 5-(1-(2-cyclopropylpyrimidin-5-yl)-5-(3,5-dimethylisoxazol-4-yl)-1H-pyrrolo[2,3-b]pyridin-3-yl)-4,6-diethoxypicolinic acid], the IC50 was 0.1 to 1000 nM. In the case of `CCOc1cc(C(=O)O)nc(OCC)c1-c1cn(C2CCC(F)(F)CC2)c2ncc(-c3c(C)noc3C)cc12` [P-0425, 5-(1-(4,4-difluorocyclohexyl)-5-(3,5-dimethylisoxazol-4-yl)-1H-pyrrolo[2,3-b]pyridin-3-yl)-4,6-diethoxypicolinic acid], the IC50 is reported as 0.1 to 1000 nM. `CCOc1cc(C(=O)O)ncc1-c1cn(C(C2CC2)C2CC2)c2ncc(-c3c(C)noc3C)cc12` [P-0427, 5-(1-(dicyclopropylmethyl)-5-(3,5-dimethylisoxazol-4-yl)-1H-pyrrolo[2,3-b]pyridin-3-yl)-4-ethoxypicolinic acid] showed an IC50 of 0.1 to 1000 nM. Compound `CCOc1cc(C(=O)O)ncc1-c1cn(C2CCOCC2)c2ncc(-c3c(C)noc3C)cc12` [P-0428, 5-(5-(3,5-dimethylisoxazol-4-yl)-1-(tetrahydro-2H-pyran-4-yl)-1H-pyrrolo[2,3-b]pyridin-3-yl)-4-ethoxypicolinic acid] has an IC50 of 0.1 to 1000 nM. `CCOc1cc(C(=O)O)nc(OCC)c1-c1cn(-c2cn(C(F)F)nc2C)c2ncc(-c3c(C)noc3C)cc12` [P-0429, 5-(1-(1-(difluoromethyl)-3-methyl-1H-pyrazol-4-yl)-5-(3,5-dimethylisoxazol-4-yl)-1H-pyrrolo[2,3-b]pyridin-3-yl)-4,6-diethoxypicolinic acid] was tested, and the IC50 was 0.1 to 1000 nM. For `CCOc1cc(C(=O)O)nc(OCC)c1-c1cn(-c2cn(CC)nc2C)c2ncc(-c3c(C)noc3C)cc12` [P-0430, 5-(5-(3,5-dimethylisoxazol-4-yl)-1-(1-ethyl-3-methyl-1H-pyrazol-4-yl)-1H-pyrrolo[2,3-b]pyridin-3-yl)-4,6-diethoxypicolinic acid], the IC50 was 0.1 to 1000 nM.
